Laboratory results: ChEMBL document CHEMBL5344405, “Seleno-vs. thioether triazine derivatives in search for new anticancer agents overcoming multidrug resistance in lymphoma” (Eur J Med Chem, 2022)
Calls of active or inactive are those of the source. The calls are words filed in the database; no cut-off is given here.

Key:
L5178Y [1] = assay: Cytotoxicity against parental mouse L5178Y cells assessed as inhibition of cell growth incubated for 24 hrs by MTT assay; format: functional, cell-based
L5178Y [2] = assay: Cytotoxicity against multidrug resistant mouse L5178Y cells expressing ABCB1 assessed as inhibition of cell growth incubated for 24 hrs by MTT assay; format: functional, cell-based
L5178Y [3] = assay: Antiproliferative activity against parental mouse L5178Y cells assessed as inhibition of cell growth incubated for 72 hrs by MTT assay; format: functional, cell-based
L5178Y [4] = assay: Antiproliferative activity against multidrug resistant mouse L5178Y cells expressing ABCB1 assessed as inhibition of cell growth incubated for 72 hrs by MTT assay; format: functional, cell-based
L5178Y [5] = assay: Synergistic antiproliferative activity against multidrug resistant mouse L5178Y cells expressing ABCB1 assessed as combination index at 50 uM incubated for 72 hrs in presence of doxorubicin at 17.242 uM by checkerboard assay; format: functional
[6] = Cytotoxicity against human HuT 102 cells assessed as inhibition of cell growth incubated for 72 hrs by MTS assay; format: functional, cell-based; conditions: HuT-102, 72 h
[7] = Cytotoxicity against human skin fibroblast cells assessed as inhibition of cell growth incubated for 72 hrs by MTS assay; format: toxicity, cell-based
Jurkat [8] = assay: Induction of cell cycle arrest in human Jurkat cells assessed as reduction in cyclin D1 gene expression at 50 uM incubated for 24 hrs by qPCR analysis; format: functional, cell-based
Jurkat [9] = assay: Induction of cell cycle arrest in human Jurkat cells assessed as reduction in cyclin E1 gene expression at 50 uM incubated for 24 hrs by qPCR analysis; format: functional, cell-based
Jurkat [10] = assay: Induction of cell cycle arrest in human Jurkat cells assessed as increase in p53 transcription at 50 uM incubated for 24 hrs by qPCR analysis; format: functional, cell-based
Jurkat [11] = assay: Induction of cell cycle arrest in human Jurkat cells assessed as increase in p21 transcription at 50 uM incubated for 24 hrs by qPCR analysis; format: functional, cell-based
Jurkat [12] = assay: Synergistic induction of cell cycle arrest in human Jurkat cells assessed as reduction in cyclin E1 gene expression at 50 uM incubated for 24 hrs in presence of doxorubicin at 50 nM by qPCR analysis; format: functional, cell-based
[13] = Upregulation of ABCB1 gene expression in human SH-SY5Y cells at 20 uM incubated for 96 hrs by RT-PCR analysis; format: toxicity, cell-based
[14] = Upregulation of ABCC1 gene expression in human SH-SY5Y cells at 20 uM incubated for 96 hrs by RT-PCR analysis; format: toxicity, cell-based
[15] = Upregulation of ABCG2 gene expression in human SH-SY5Y cells at 20 uM incubated for 96 hrs by RT-PCR analysis; format: toxicity, cell-based
L5178Y [16] = assay: Synergistic antiproliferative activity against multidrug resistant mouse L5178Y cells expressing ABCB1 assessed as combination index at 60 uM incubated for 72 hrs in presence of doxorubicin at 17.242 uM by checkerboard assay; format: functional
Jurkat [17] = assay: Synergistic induction of cell cycle arrest in human Jurkat cells assessed as reduction in cyclin D1 gene expression at 50 uM incubated for 24 hrs in presence of doxorubicin at 50 nM by qPCR analysis; format: functional, cell-based
Jurkat [18] = assay: Synergistic induction of cell cycle arrest in human Jurkat cells assessed as increase in p53 gene expression at 50 uM incubated for 24 hrs in presence of doxorubicin at 50 nM by qPCR analysis; format: functional, cell-based
Jurkat [19] = assay: Synergistic induction of cell cycle arrest in human Jurkat cells assessed as increase in p21 gene expression at 50 uM incubated for 24 hrs in presence of doxorubicin at 50 nM by qPCR analysis; format: functional, cell-based
L5178Y [20] = assay: Synergistic antiproliferative activity against multidrug resistant mouse L5178Y cells expressing ABCB1 assessed as combination index at 200 uM incubated for 72 hrs in presence of doxorubicin at 17.242 uM by checkerboard assay; format: functional
L5178Y [21] = assay: Synergistic antiproliferative activity against multidrug resistant mouse L5178Y cells expressing ABCB1 assessed as combination index at 150 uM incubated for 72 hrs in presence of doxorubicin at 17.242 uM by checkerboard assay; format: functional
L5178Y [22] = assay: Synergistic antiproliferative activity against multidrug resistant mouse L5178Y cells expressing ABCB1 assessed as combination index at 100 uM incubated for 72 hrs in presence of doxorubicin at 17.242 uM by checkerboard assay; format: functional
[23] = Selectivity index, ratio of IC50 for parental mouse L5178Y cells to IC50 for multidrug resistant mouse L5178Y cells expressing ABCB1; format: functional
Jurkat [24] = assay: Induction of cell cycle arrest in human Jurkat cells assessed as increase in p21 gene expression at 50 uM incubated for 24 hrs by qPCR analysis; format: functional, cell-based
Jurkat [25] = assay: Induction of cell cycle arrest in human Jurkat cells assessed as increase in p53 gene expression at 50 uM incubated for 24 hrs by qPCR analysis; format: functional, cell-based

| SMILES | IC50 (L5178Y [1]) [µM] | IC50 (L5178Y [2]) [µM] | IC50 (L5178Y [3]) [µM] | IC50 (L5178Y [4]) [µM] | also measured |
| --- | --- | --- | --- | --- | --- |
| CCCC(Sc1ccccc1)c1nc(N)nc(N2CCN(C)CC2)n1.Cl (stereo not drawn) | 15 | 21.2 | 15.5 | 16.6 | CI (L5178Y [5]): 0.044; IC50 [6]: 58.2 µM; IC50 at 72 h [7]: > 100 µM; Activity (Jurkat [8]): inactive; Activity (Jurkat [9]): Active; Activity (Jurkat [10]): Active; Activity (Jurkat [11]): Active; Activity (Jurkat [12]): Active |
| CN1CCN(c2nc(N)nc(CSCc3ccccc3)n2)CC1 | > 100 | > 100 | 57.2 | 37.2 |  |
| CC(Sc1cccc2ccccc12)c1nc(N)nc(N2CCN(C)CC2)n1 (stereo not drawn) | 15.5 | 32.4 | 23.3 | 32.8 |  |
| CN1CCN(c2nc(N)nc(CSc3ccccc3)n2)CC1 | > 100 | > 100 | > 100 | 79.9 |  |
| CN1CCN(c2nc(N)nc(CCCSc3ccc4ccccc4c3)n2)CC1.Cl | 11.4 | 16.7 | 6.71 | 5.35 | Activity [13]: Toxic; Activity [14]: Toxic; Activity [15]: Toxic; CI (L5178Y [16]): 0.18; IC50 [6]: 19.7 µM; IC50 at 72 h [7]: 79.1 µM; Activity (Jurkat [8]): Active; Activity (Jurkat [9]): Active; Activity (Jurkat [10]): Active; Activity (Jurkat [11]): Active; Activity (Jurkat [17]): Active; Activity (Jurkat [12]): Active; Activity (Jurkat [18]): Active; Activity (Jurkat [19]): Active |
| CCC(Sc1ccccc1)c1nc(N)nc(N2CCN(C)CC2)n1.Cl (stereo not drawn) | 54.4 | 81.5 | 58 | 47 | CI (L5178Y [20]): 0.127 |
| CCCCC(Sc1ccccc1)c1nc(N)nc(N2CCN(C)CC2)n1.Cl (stereo not drawn) | 15.5 | 21.6 | 20.6 | 17.4 | CI (L5178Y [5]): 0.148 |
| CCCCC(Sc1ccc2ccccc2c1)c1nc(N)nc(N2CCN(C)CC2)n1 (stereo not drawn) | 23.2 | 45.2 | 36.4 | 35.5 |  |
| CN1CCN(c2nc(N)nc(CCC[Se]Cc3ccccc3)n2)CC1 | 32 | 57.4 | 30.8 | 38.6 |  |
| CN1CCN(c2nc(N)nc(CCCSc3ccccc3)n2)CC1.Cl | 30.1 | 52 | 34.1 | 28.6 | CI (L5178Y [21]): 0.199 |
| CC(SCc1ccccc1)c1nc(N)nc(N2CCN(C)CC2)n1 (stereo not drawn) | 91.8 | > 100 | > 100 | 92.4 |  |
| CN1CCN(c2nc(N)nc(CCC[Se]c3ccccc3)n2)CC1.Cl | 33.4 | 42.2 | 13.3 | 11.6 | CI (L5178Y [22]): 0.309; IC50 [6]: 62 µM; IC50 at 72 h [7]: > 100 µM; Activity (Jurkat [8]): Active; Activity (Jurkat [9]): Active; Activity (Jurkat [17]): Active; Activity (Jurkat [12]): Active |
| CN1CCN(c2nc(N)nc(C[Se]Cc3ccccc3)n2)CC1 | > 100 | > 100 | 45.6 | 22.7 |  |
| CCC(Sc1cccc2ccccc12)c1nc(N)nc(N2CCN(C)CC2)n1 (stereo not drawn) | 22.6 | 30.3 | 28.2 | 31.1 |  |
| CCC(SCc1ccccc1)c1nc(N)nc(N2CCN(C)CC2)n1 (stereo not drawn) | 59.2 | > 100 | 83 | 67.3 |  |
| CN1CCN(c2nc(N)nc(C(C)(C)Sc3ccccc3)n2)CC1.Cl | 68.8 | 83.9 | 65.2 | 53 | CI (L5178Y [20]): 0.41 |

| SMILES | IC50 (L5178Y [1]) [µM] | IC50 (L5178Y [2]) [µM] | IC50 (L5178Y [3]) [µM] | IC50 (L5178Y [4]) [µM] | also measured |
| --- | --- | --- | --- | --- | --- |
| CC(Sc1ccc2ccccc2c1)c1nc(N)nc(N2CCN(C)CC2)n1 (stereo not drawn) | 18.4 | 28.1 | 21.3 | 18.6 |  |
| CN1CCN(c2nc(N)nc(C(C)(C)Sc3cccc4ccccc34)n2)CC1 | 14.8 | 23.4 | 19.9 | 24.7 |  |
| CCC(Sc1ccc2ccccc2c1)c1nc(N)nc(N2CCN(C)CC2)n1 (stereo not drawn) | 17.8 | 30.4 | 21.2 | 27.5 |  |
| CCCC(Sc1ccc2ccccc2c1)c1nc(N)nc(N2CCN(C)CC2)n1 (stereo not drawn) | 23.9 | 53.2 | 43.3 | 42.7 |  |
| COc1cccc2c1C(=O)c1c(O)c3c(c(O)c1C2=O)C[C@@](O)(C(=O)CO)C[C@@H]3O[C@H]1C[C@H](N)[C@H](O)[C@H](C)O1 [DOXORUBICIN] | 0.7 | 2.14 | 0.28 | 1.75 |  |
| CN1CCN(c2nc(N)nc(CCSCc3ccccc3)n2)CC1.Cl | 82.4 | 70.9 | 38.6 | 32.2 | CI (L5178Y [20]): 0.323 |
| CN1CCN(c2nc(N)nc(CCSc3ccccc3)n2)CC1 | 60.8 | 67 | 54.5 | 33.8 |  |
| CN1CCN(c2nc(N)nc(C(C)(C)Sc3ccc4ccccc4c3)n2)CC1 | 24.8 | 29 | 26.4 | 38.5 |  |
| CCCC([Se]c1ccccc1)c1nc(N)nc(N2CCN(C)CC2)n1.Cl (stereo not drawn) | 38.6 | 76.8 | 14.4 | 6.03 | Ratio IC50 [23]: >2; CI (L5178Y [20]): 0.092; IC50 [6]: 54.3 µM; IC50 at 72 h [7]: > 100 µM; Activity (Jurkat [8]): Active; Activity (Jurkat [9]): Active; Activity (Jurkat [24]): Active; Activity (Jurkat [17]): Active; Activity (Jurkat [18]): Active; Activity (Jurkat [19]): Active |
| CN1CCN(c2nc(N)nc(CCCSCc3ccccc3)n2)CC1 | 27.7 | 61.3 | 38.8 | 51.5 |  |
| CC(Sc1ccccc1)c1nc(N)nc(N2CCN(C)CC2)n1 (stereo not drawn) | > 100 | > 100 | > 100 | 68.7 |  |
| CCC([Se]Cc1ccccc1)c1nc(N)nc(N2CCN(C)CC2)n1 (stereo not drawn) | 8.66 | 25.3 | 10.7 | 11.8 | IC50 [6]: 44.3 µM; IC50 at 72 h [7]: > 100 µM; Activity (Jurkat [8]): Active; Activity (Jurkat [9]): Active; Activity (Jurkat [25]): Active; Activity (Jurkat [24]): Active; Activity (Jurkat [18]): Active; Activity (Jurkat [19]): Active |
| CCCC(SCc1ccccc1)c1nc(N)nc(N2CCN(C)CC2)n1.Cl (stereo not drawn) | 36 | 54.6 | 24.2 | 23.5 | CI (L5178Y [21]): 0.142 |
| CN1CCN(c2nc(N)nc(CSc3ccc4ccccc4c3)n2)CC1.Cl | 27.1 | 36.6 | 19 | 13.5 | CI (L5178Y [22]): 0.415 |
| CCCCC(SCc1ccccc1)c1nc(N)nc(N2CCN(C)CC2)n1 (stereo not drawn) | 19.7 | 30.6 | 25.8 | 28.1 |  |
